For one assay, the system named is MV-4-11 cells. Kind of assay: Cell proliferation experiment (intracellular ATP, CellTiter-Glo), MV-4-11. In kind it is cell-based. To be noted: Homo sapiens, MV4-11, 72 h, read-out: MV-4-11 IC50. The method, then:
(§1) The following method evaluates the inhibition effect of the compound of the present invention on the proliferation of AMO-1 and MV-4-11 cells according to IC50 value by detecting intracellular ATP content. The experimental method is briefly described as follows.
(§2) AMO-1 cells were cultured in RPMI1640 medium (containing 20% FBS), and MV-4-11 cells were cultured in IMDM medium (containing 10% FBS). The cells were passaged for 2 to 3 times a week, with a passage ratio of 1:4 or 1:6. During the passage, the cells were transferred to a centrifuge tube and centrifuged at 1200 rpm for 3 minutes. The supernatant was discarded, and fresh medium was added to resuspend the cells. […] 100 μL of complete medium was added to the periphery of the 96-well plate. The plate was incubated in an incubator for 24 hours (37° C., 5% CO2).
(§3) The test sample was diluted to 20 mM with DMSO, and then diluted to 9 concentrations by diluting in 4-fold gradient. Blank and control wells were set. 5 μL of the test compound solution formulated as gradient concentration was added to 95 μL of fresh medium. 10 µL of the above drug-containing medium solution was added to the plate. The plate was incubated in an incubator for 3 days (37° C., 5% CO2). In the 96-well cell culture plate, 50 μL of CellTiter-Glo reagent was added to each well, and the plate was left to stand in the dark at room temperature for 5 to 10 minutes. The chemiluminescence signal value was read in PHERAstar, and the data was processed by GraphPad software.
For orientation: In ATP-based viability assays light output follows the ATP content of the culture.

For another assay, the system named is AMO-1 cells. Nature of the assay: Cell proliferation experiment (intracellular ATP, CellTiter-Glo), AMO-1. In kind it is cell-based. Conditions: Homo sapiens, AMO1, 72 h, read-out: AMO-1 IC50. The method, then: as §1
1. AMO-1, human bone marrow plasmacytoma (Nanjing Cobioer Biosciences Co., Ltd., CBP60242)
as §2, §3

The next assay deals with T1, MCL-1 protein (Homo sapiens, UniProt Q07820).
T1 construct: Bim peptide bought from R&D, 3526/1 NA
Kind of assay: MCL-1 protein binding experiment (HTRF, MCL-1/Bim). To be noted: for inhibition at up to 10 µM / Maximum inhibition rate (%): HTRF MCL-1/Bim binding, initial concentration 10 μM; for inhibition at up to 10 µM: read-out: Maximum inhibition rate (%); for Ki: HTRF, 0.1 nM His-MCL-1, 2.5 nM bio-Bim, room temperature. The method, then:
The following method was used to determine the binding ability of the compound of the present invention to MCL-1 protein. The experimental method is briefly described as follows.
MCL-1 inhibitors can bind to MCL-1 protein to prevent the binding of MCL-1 to Bim protein. The experiment evaluates the binding ability of MCL-1 inhibitor to MCL-1 protein by detecting the binding of MCL-1 to Bim protein through HTRF method, and the activity of the compound was evaluated according to the Ki value.
The mixture was incubated at room temperature for 2 hours, followed by the detection of fluorescence signals at 620 nm and 665 nm by PHERAstar. The data was processed by GraphPad software.
(TR-FRET usually uses a lanthanide donor and a delayed reading to cut background.)

The mark [1] stands for this setting: MV-4-11 cells, incubated 3 days, CellTiter-Glo.
Setting [2] is: AMO-1 cells, incubated 3 days, CellTiter-Glo.

We go through 13 compounds from patent US20220041623A1, “INDOLE MACROCYCLIC DERIVATIVE, PREPARATION METHOD THEREOF AND APPLICATION THEREOF IN MEDICINE” (JIANGSU HENGRUI MEDICINE CO., LTD., priority 2018, published 2022).

Read-outs that look alike come from different tables or passages of the source.

T1 sequence (Q07820 171-327): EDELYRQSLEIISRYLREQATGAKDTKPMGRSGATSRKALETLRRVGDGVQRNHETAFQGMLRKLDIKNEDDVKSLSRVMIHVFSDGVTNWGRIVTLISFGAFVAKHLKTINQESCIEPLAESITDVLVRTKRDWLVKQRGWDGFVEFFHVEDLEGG

One may read the IC50 as the concentration that gives 50% inhibition. A word on the inhibition: it is the relative decrease from the control value, in per cent. As usually defined, the Ki is the dissociation constant of the complex between target and ligand, obtained from inhibition or displacement. A high value points to a looser hold on the target. With `Cc1c(C(=O)O)n2c3ccc(Cl)c(c13)-c1c(nn(C)c1C)CSCc1cc(n(C)n1)CSc1cc(cc3c1CCC3)OCCC2` [Example 12, 17-Chloro-5,13,14,22-tetramethyl-28-oxa-2,9-dithia-5,6,12,13,24-pentaazaheptacyclo[27.6.1.1^4,7.0^11,15.0^16,21.0^20,24.0^30,35]heptatriaconta-1(36),4(37),6,11,14,16,18,20,22,29,31(35)-undecaene-23-carboxylic acid], the IC50 in the assay with MV-4-11 cells (setting [1]) and with AMO-1 cells (setting [2]) was 63 nM each time. Besides, at MCL-1 protein, the inhibition at up to 10 µM is 100%. The Ki on MCL-1 protein was 0.22 nM.
For `Cc1c(C(=O)O)n2c3ccc(Cl)c(c13)-c1c(nn(C)c1C)CSCc1cc(n(C)n1)CSc1cc(c3ccccc3c1)OCCC2` (single isomer, unassigned) [Example 2-1, (Ra)-17-Chloro-5,13,14,22-tetramethyl-28-oxa-2,9-dithia-5,6,12,13,24-pentaazaheptacyclo[27.7.1.1^4,7.0^11,15.0^16,21.0^20,24.0^30,35]octatriaconta-1(37),4(38),6,11,14,16,18,20,22,29,31,33,35-tridecaene-23-carboxylic acid], in the assay with MV-4-11 cells (setting [1]), the half-maximal inhibitory concentration (IC50) came out at 42 nM. The half-inhibitory concentration (IC50) in the assay with AMO-1 cells (setting [2]) amounted to 76 nM. For the same compound, at MCL-1 protein, the inhibition at up to 10 µM was 100% and the inhibition constant Ki turned out to be 0.11 nM.
For `Cc1c(C(=O)O)n2c3ccc(Cl)c(c13)-c1c(nn(C)c1C)CSCc1cc(n(C)n1)CCc1cc3c(c(c1)OCCC2)CCCC3` (single isomer, unassigned) [Example 8-1, (Ra)-17-Chloro-5,13,14,22-tetramethyl-28-oxa-9-thia-5,6,12,13,24-pentaazaheptacyclo[27.7.1.1^4,7.0^11,15.0^16,21.0^20,24.0^30,35]octatriaconta-1(37),4(38),6,11,14,16,18,20,22,29,35-undecaene-23-carboxylic acid], in the assay on MV-4-11 cells (setting [1]), the IC50 turned out to be 136 nM. For the same compound, in the assay on AMO-1 cells (setting [2]), the IC50 turned out to be 100 nM. On MCL-1 protein, the inhibition at up to 10 µM amounted to 100% and the affinity, expressed as Ki, was 0.46 nM.
Consider `Cc1c(C(=O)O)n2c3ccc(Cl)c(c13)-c1c(nn(C)c1C)CSCc1cc(n(C)n1)CCc1cc(c3ccccc3c1)OCCC2` (single isomer, unassigned) [Example 4-1, (Ra)-17-Chloro-5,13,14,22-tetramethyl-28-oxa-9-thia-5,6,12,13,24-pentaazaheptacyclo[27.7.1.1^4,7.0^11,15.0^16,21.0^20,24.0^30,35]octatriaconta-1(37),4(38),6,11,14,16,18,20,22,29,31,33,35-tridecaene-23-carboxylic acid], for which the IC50 amounted to 39 nM with MV-4-11 cells and 37 nM in the assay on AMO-1 cells. For the same compound, the inhibition at up to 10 µM on MCL-1 protein was 100%. At MCL-1 protein, the inhibitory constant (Ki) came to 0.15 nM.
For the compound `Cc1c(C(=O)O)n2c3ccc(Cl)c(c13)-c1c(nn(C)c1C)CSCc1cc(n(C)n1)CSc1cc(cc3c1CCC3)OCCC2` (single isomer, unassigned) [Example 12-2, (Sa)-17-Chloro-5,13,14,22-tetramethyl-28-oxa-2,9-dithia-5,6,12,13,24-pentaazaheptacyclo[27.6.1.1^4,7.0^11,15.0^16,21.0^20,24.0^30,35]heptatriaconta-1(36),4(37),6,11,14,16,18,20,22,29,31(35)-undecaene-23-carboxylic acid], on MCL-1 protein, the “Maximum inhibition rate (%)” value was 100% and the affinity corresponds to a Ki of 5.7 nM.
As to `Cc1c(C(=O)O)n2c3ccc(Cl)c(c13)-c1c(nn(C)c1C)CSCc1cc(n(C)n1)CCc1cc3c(c(c1)OCCC2)CCCC3` [Example 8, 17-Chloro-5,13,14,22-tetramethyl-28-oxa-9-thia-5,6,12,13,24-pentaazaheptacyclo[27.7.1.1^4,7.0^11,15.0^16,21.0^20,24.0^30,35]octatriaconta-1(37),4(38),6,11,14,16,18,20,22,29,35-undecaene-23-carboxylic acid], at MCL-1 protein, the inhibition at up to 10 µM worked out at 100% and the Ki is 0.55 nM.
As to `Cc1c(C(=O)O)n2c3ccc(Cl)c(c13)-c1c(nn3c1CCCC3)CSCc1cc(n(C)n1)CSc1cc(c3ccccc3c1)OCCC2` [Example 10, 21-Chloro-5,26-dimethyl-32-oxa-2,9-dithia-5,6,12,13,28-pentaazaoctacyclo[31.7.1.1^4,7.0^11,19.0^13,18.0^20,25.0^24,28.0^34,39]dotetraconta-1(41),4(42),6,11,18,20,22,24,26,33,35,37,39-tridecaene-27-carboxylic acid], on MCL-1 protein, the inhibition at up to 10 µM was 101% and the Ki was 7.9 nM.
Consider `Cc1c(C(=O)O)n2c3ccc(Cl)c(c13)-c1c(nn(C)c1C)CN(C)Cc1cc(n(C)n1)CSc1cc(c3ccccc3c1)OCCC2` [Example 3, 17-Chloro-5,9,13,14,22-pentamethyl-28-oxa-2-thia-5,6,9,12,13,24-hexaazaheptacyclo[27.7.1.1^4,7.0^11,15.0^16,21.0^20,24.0^30,35]octatriaconta-1(37),4(38),6,11,14,16,18,20,22,29,31,33,35-tridecaene-23-carboxylic acid], for which, at MCL-1 protein, the inhibition at up to 10 µM turned out to be 100% and the Ki amounted to 0.6 nM.
For `Cc1c(C(=O)O)n2c3ccc(Cl)c(c13)-c1c(nn(C)c1C)CSCc1cc(n(C)n1)CCc1cc(c3ccccc3c1)OCCC2` [Example 4, 17-Chloro-5,13,14,22-tetramethyl-28-oxa-9-thia-5,6,12,13,24-pentaazaheptacyclo[27.7.1.1^4,7.0^11,15.0^16,21.0^20,24.0^30,35]octatriaconta-1(37),4(38),6,11,14,16,18,20,22,29,31,33,35-tridecaene-23-carboxylic acid], at MCL-1 protein, the inhibition at up to 10 µM turned out to be 99% and the inhibition constant (Ki) turned out to be 1.35 nM.
As for `Cc1c(C(=O)O)n2c3ccc(Cl)c(c13)-c1c(nn(C)c1C)CSCc1cc(n(C)n1)CSc1cc3c(c(c1)OCCC2)CCCC3` (single isomer, unassigned) [Example 7-1, (Ra)-17-Chloro-5,13,14,22-tetramethyl-28-oxa-2,9-dithia-5,6,12,13,24-pentaazaheptacyclo[27.7.1.1^4,7.0^11,15.0^16,21.0^20,24.0^30,35]octatriaconta-1(37),4(38),6,11,14,16,18,20,22,29,35-undecaene-23-carboxylic acid], in the assay with MV-4-11 cells (setting [1]), the half-maximal inhibitory concentration (IC50) is 71 nM. For the same compound, the half-maximal inhibitory concentration (IC50) in the assay on AMO-1 cells (setting [2]) came to 70 nM. In addition, at MCL-1 protein, the inhibition at up to 10 µM is 99% and the inhibition constant Ki was 0.74 nM.
Take `Cc1c(C(=O)O)n2c3ccc(Cl)c(c13)-c1c(nn(C)c1C)CSCc1cc(n(C)n1)CSc1cc(c3ccccc3c1)OCCC2` (single isomer, unassigned) [Example 2-2, (Sa)-17-Chloro-5,13,14,22-tetramethyl-28-oxa-2,9-dithia-5,6,12,13,24-pentaazaheptacyclo[27.7.1.1^4,7.0^11,15.0^16,21.0^20,24.0^30,35]octatriaconta-1(37),4(38),6,11,14,16,18,20,22,29,31,33,35-tridecaene-23-carboxylic acid]: on MCL-1 protein (10 µM), the “Maximum inhibition rate (%)” value is 95%. Besides, the affinity on MCL-1 protein corresponds to a Ki of 65 nM.
For `Cc1c(C(=O)O)n2c3ccc(Cl)c(c13)-c1c(nn3c1CCCC3)CN(C)Cc1cc(n(C)n1)CSc1cc(c3ccccc3c1)OCCC2` [Example 11, 21-Chloro-5,9,26-trimethyl-32-oxa-2-thia-5,6,9,12,13,28-hexaazaoctacyclo[31.7.1.1^4,7.0^11,19.0^13,18.0^20,25.0^24,28.0^34,39]dotetraconta-1(41),4(42),6,11,18,20,22,24,26,33,35,37,39-tridecaene-27-carboxylic acid], on MCL-1 protein, the inhibition at up to 10 µM was 100% and affinity was put at a Ki of 3 nM.
Take `Cc1c(C(=O)O)n2c3ccc(Cl)c(c13)-c1c(nn(C)c1C)CN(C)Cc1cc(n(C)n1)CSc1cc(c3ccccc3c1)OCCC2` (single isomer, unassigned) [Example 3-1, (Ra)-17-Chloro-5,9,13,14,22-pentamethyl-28-oxa-2-thia-5,6,9,12,13,24-hexaazaheptacyclo[27.7.1.1^4,7.0^11,15.0^16,21.0^20,24.0^30,35]octatriaconta-1(37),4(38),6,11,14,16,18,20,22,29,31,33,35-tridecaene-23-carboxylic acid]: at MCL-1 protein, the inhibition at up to 10 µM stood at 100% and the Ki amounted to 0.18 nM.
